Data set [1] can be described thus: Circular dichroism (CD) spectroscopy, characterization of helical structure. Type of data set: physicochemical. The following applies: for α-helical content (% helix) in aqueous conditions: aqueous benign buffer pH 7.0, 5° C.; for inducible helical structure Δ[Θ]222 nm TFE-Aqueous: difference 50% TFE minus aqueous buffer; for helical structure in hydrophobic medium containing 50% TFE: buffer pH 7.0 / 50% TFE, 5° C. Background: CD spectra are sensitive to the conformation of chiral molecules.
Description: The mean residue molar ellipticities of peptides were determined by circular dichroism (CD) spectroscopy, using a Jasco J-815 spectropolarimeter (Jasco Inc. Easton, Md., USA) at 5° C. under benign (non-denaturing) conditions (50 mM NaH2PO4/Na2HPO4/100 mM KCl, pH 7.0), hereafter referred to as benign buffer, as well as in the presence of an alpha-helix inducing solvent, 2,2,2-trifluoroethanol, TFE, (50 mM NaH2PO4/Na2HPO4/100 mM KCl, pH 7.0 buffer/50% TFE). A 10-fold dilution of an approximately 500 microM stock solution of the peptide analogs was loaded into a 0.1 cm quartz cell and its ellipticity scanned from 195 to 250 nm. Peptide concentrations were determined by amino acid analysis.

For data set [2], the system named is A. baumannii compared to P. aeruginosa. Nature of the data set: Selectivity (MICGM P. aeruginosa/MICGM A. baumannii). It is filed as cell-based, Acinetobacter baumannii.
A short description of data set [3]: Temperature profiling in RP-HPLC (peptide self-association). Type of data set: physicochemical. The following applies: RP-HPLC pH 2, 5° C.-77° C., maximum change in retention time relative to random coil standards. An excerpt: Peptide self-association, the ability to oligomerize/dimerize in aqueous solution, is an important parameter that can improve antimicrobial activity while removing toxicity. The inventors hypothesize that the monomeric random-coil antimicrobial peptides in aqueous solution are best suited to pass through a polysaccharide capsule, the outer membrane lipopolysaccharide and the cell wall peptidoglycan layer of microorganisms prior to penetration into the cytoplasmic membrane, induction of alpha-helical structure and disruption of membrane structure to kill target cells. […] In the present study, the ability of the AMPs to self-associate was determined by a technique developed in the inventors' laboratory, referred to as RP-HPLC temperature profiling at pH 2 over the temperature range of 5° C. to 80° C. […]
Purified peptides were analyzed on an Agilent 1200 series liquid chromatograph for temperature profiling using a Zorbax 300 SB-C8 column (150 mm×2.1 mm I.D.; 5 μm particle size, 300 Å pore size) from Agilent Technologies. […]
FIGS. 5-8 illustrate self-association profiles of the α-helical AMP analogs as determined by temperature profiling in RP-HPLC. […]

The next data set deals with Pseudomonas aeruginosa. Nature of the data set: Antimicrobial activity against Pseudomonas aeruginosa. It is filed as cell-based. The protocol:
In the current study de novo designed AMPs were tested against seven diverse clinical isolates of the Gram-negative pathogen A. baumannii and seven A. baumannii strains resistant to polymyxin B and polymyxin E (Colistin). In addition, the inventors tested these AMPs against six diverse clinical isolates of the Gram-negative pathogen, P. aeruginosa, and nine Gram-positive methicillin-sensitive S. aureus clinical isolates and eight Gram-positive methicillin/oxacillin-resistant S. aureus strains. This testing allows for the determination of pathogen selectivity between Gram-negative and Gram-positive pathogens as the location of the positively charged residues on the polar face is varied.
The minimal inhibitory concentration (MIC) is defined as the lowest peptide concentration that inhibited bacterial growth. MICs were measured by a standard microtiter dilution method in Mueller Hinton (MH) medium. Briefly, cells were grown overnight at 37° C. in MH broth and were diluted in the same medium. Serial dilutions of the peptides were added to the microtiter plates in a volume of 50 microL, followed by the addition of 50 microL of bacteria to give a final inoculum of 5×10^5 colony-forming units (CFU)/mL. The plates were incubated at 37° C. for 24 h, and the MICs were determined.

Another data set deals with human erythrocytes. Nature of the data set: Hemolytic activity against human erythrocytes. Type of data set: cell-based. The following applies: 1% human erythrocytes, 18 h, 37° C. As for the experimental part:
Peptide samples (concentrations determined by amino acid analysis) were added to 1% human erythrocytes in phosphate-buffered saline (100 mM NaCl, 80 mM Na2HPO4, 20 mM NaH2PO4, pH 7.4) and the reaction mixtures were incubated at 37° C. for 18 h in microtiter plates. Two-fold serial dilutions of the peptide samples were carried out. This determination was made by withdrawing aliquots from the hemolysis assays and removing unlysed erythrocytes by centrifugation (800×g). Hemoglobin release was determined spectrophotometrically at 570 nm. The control for 100% hemolysis was a sample of erythrocytes treated with water. The control for no release of hemoglobin was a sample of 1% erythrocytes without any peptide added. Since erythrocytes were in an isotonic medium, no detectable release (<1% of that released upon complete hemolysis) of hemoglobin was observed from this control during the assay. The hemolytic activity is generally determined as the peptide concentration that causes 50% hemolysis of erythrocytes after 18 h (HC50). HC50 was determined from a plot of percent lysis versus peptide concentration (microM). If 50% hemolysis could not be reached, the inventors used HC30 values (30% hemolysis).

In the next data set the target is D26 (K13A, K16A). Put plainly: RP-HPLC temperature profiling 5-77 C, pH 2; self-association (monomer-dimer) of the peptide.
In another data set the target is D52. Described as above.

Square brackets hold non-standard residues; d marks the D form. Orn = NCCC[C@H](N)C(=O)O

For Ac-ALKKLLSTLSSARSSRLSTLLKALKK-NH2 [D58], in data set [1], the “α-helical content (% helix) in aqueous conditions” value (“α-helical content (% helix)” below) came to 7.2% and the “inducible helical structure Δ[Θ]222 nm TFE-Aqueous” value is on record as 750.

With “Ac-ALKKLLSTLSSA[Orn]SS[Orn]LSTLLKALKK-NH2 [D56]”, in data set [1], the “α-helical content (% helix)” value was found to be 3.5% and the “helical structure in hydrophobic medium containing 50% TFE” value was found to be 27.2%.

Turning to “Ac-KLKSLLSTLSSAAKKALSTLLSALSK-NH2 [D26 (K13A, K16A)]”, in data set [1] (50 mM potassium phosphate buffer, pH 7.0, 100 mM KCl), the “helical structure in aqueous buffer conditions (in words)” value was “α-helical”.

In the case of “Ac-AL[Orn][Orn]LLSTLSSAKSSKLSTLL[Orn]AL[Orn][Orn]-NH2 [D59]”, in data set [1], the “α-helical content (% helix)” value is 6.9% and the “inducible helical structure Δ[Θ]222 nm TFE-Aqueous” value amounted to 1061.

Turning to “Ac-KLKSLLKTLSKAKKKKLKTLLKALSK-NH2 [D16, reference compound]”, in data set [2], the “selectivity factor (MICGM P. aeruginosa/MICGM A. baumannii)” value was 2.7.

With “Ac-ALKKLLSTLSSAKSSKLSTLLKALKK-amide (Ac-ALKKLLSTLSSAKSSKLSTLLKALKK-NH2) [D52]”, in data set [1], the “α-helical content (% helix)” value was determined as 13.7%, the “helical structure in hydrophobic medium containing 50% TFE” value stood at 100% and the “inducible helical structure Δ[Θ]222 nm TFE-Aqueous” value is 1422. Moreover, the “peptide self-association parameter PA” value in data set [3] is 7.78 min.

With Ac-KLKSLLSTLSSAKKKKLSTLLSALSK-NH2 [D26], the “α-helical content (% helix)” value in data set [1] is 8.9%. In the data set on Pseudomonas aeruginosa, the “activity against Pseudomonas aeruginosa (in words)” value is “inactive”. For the same molecule, in data set [2], the “improvement in selectivity (MICGM P. aeruginosa/MICGM A. baumannii)” value turned out to be 25 fold. The “hemolytic activity HC50” value with human erythrocytes is over 1776 µM.

The molecule Ac-[dK][dL][dK][dS][dL][dL][dS][dT][dL][dS][dS][dA][dA][dK][dK][dA][dL][dS][dT][dL][dL][dS][dA][dL][dS][dK]-NH2 [D26 (K13A, K16A)] returned a PA (peptide self-association parameter) with D26 (K13A, K16A) of 27 min.

B1: D52 (peptide)
chain: Ac-[dA][dL][dK][dK][dL][dL][dS][dT][dL][dS][dS][dA][dK][dS][dS][dK][dL][dS][dT][dL][dL][dK][dA][dL][dK][dK]-NH2
SMILES: CC(=O)N[C@H](C)C(=O)N[C@H](CC(C)C)C(=O)N[C@H](CCCCN)C(=O)N[C@H](CCCCN)C(=O)N[C@H](CC(C)C)C(=O)N[C@H](CC(C)C)C(=O)N[C@H](CO)C(=O)N[C@@H](C(=O)N[C@H](CC(C)C)C(=O)N[C@H](CO)C(=O)N[C@H](CO)C(=O)N[C@H](C)C(=O)N[C@H](CCCCN)C(=O)N[C@H](CO)C(=O)N[C@H](CO)C(=O)N[C@H](CCCCN)C(=O)N[C@H](CC(C)C)C(=O)N[C@H](CO)C(=O)N[C@@H](C(=O)N[C@H](CC(C)C)C(=O)N[C@H](CC(C)C)C(=O)N[C@H](CCCCN)C(=O)N[C@H](C)C(=O)N[C@H](CC(C)C)C(=O)N[C@H](CCCCN)C(=O)N[C@H](CCCCN)C(N)=O)[C@H](C)O)[C@H](C)O
B1 came in with a PA (peptide self-association parameter) with D52 of 7.78 min.

The values above are taken from patent US20200024315A1, “ANTIMICROBIAL PEPTIDES AND METHODS OF TREATING GRAM-NEGATIVE PATHOGENS” (THE REGENTS OF THE UNIVERSITY OF COLORADO, a body corporate, priority 2017, published 2020).
